Results reported in US9193695B2, “1, 2, 4-triazolone derivative and use thereof as an antagonist on the arginine-vasopressin 1B receptor” (TAISHO PHARMACEUTICAL CO., LTD., priority 2010, dated 2015).
Counter-ions that a name gives are not always drawn.

Molecular target: T1, Human V1b receptor (Homo sapiens, UniProt P47901)
T1 sequence (P47901 1-424): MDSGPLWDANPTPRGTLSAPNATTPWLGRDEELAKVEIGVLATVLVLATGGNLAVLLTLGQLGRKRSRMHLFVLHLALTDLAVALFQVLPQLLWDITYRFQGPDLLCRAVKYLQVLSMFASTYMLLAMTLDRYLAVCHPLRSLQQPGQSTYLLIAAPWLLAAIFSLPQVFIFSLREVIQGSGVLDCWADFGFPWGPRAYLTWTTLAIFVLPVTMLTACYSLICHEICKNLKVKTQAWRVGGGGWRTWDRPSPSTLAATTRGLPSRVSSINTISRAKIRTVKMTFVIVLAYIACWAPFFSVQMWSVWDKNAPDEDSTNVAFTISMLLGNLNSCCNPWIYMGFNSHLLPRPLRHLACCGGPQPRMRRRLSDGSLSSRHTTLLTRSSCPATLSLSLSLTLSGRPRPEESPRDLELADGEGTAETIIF
Experiment: Binding test for V1b receptor ([3H]AVP displacement, crude membrane preparation)
Design: expressed in transfected cells; host or cells: 293FT cells (Invitrogen), transient expression; crude membrane preparation
Conditions: [3H]AVP 0.4 to 1 nmol/L; membranes of 293FT cells transiently expressing human V1b receptor; room temperature, 60 minutes
Method: Binding Test for V1b Receptor
Human V1b receptor was transiently expressed in 293FT cells (Invitrogen). The cells were collected and were homogenated in a 15 mmol/L tris-hydrochloric acid buffer (pH 7.4, containing 2 mmol/L magnesium chloride, 0.3 mmol/L ethylenediaminetetracetic acid, and 1 mmol/L glycol ether diaminetetraacetic acid). The resulting homogenate was centrifuged at 50,000×g at 4° C. for 20 minutes. The precipitate was resuspended in a 75 mmol/L tris-hydrochloric acid buffer (pH 7.4, containing 12.5 mmol/L magnesium chloride, 0.3 mmol/L ethylenediaminetetracetic acid, 1 mmol/L glycol ether diamine tetraacetic acid, and 250 mmol/L sucrose) to give a crude membrane preparation, which was stored at −80° C. until the binding test. In the binding test, the crude membrane preparation was diluted with a 50 mmol/L tris-hydrochloric acid buffer (pH 7.4, containing 10 mmol/L magnesium chloride and 0.1% bovine serum albumin), and test compound was serially diluted with DMSO. The diluted crude membrane preparation was incubated with each test compound (final concentration of 0.01 nmol/L to 1 μmol/L) and [^3H]AVP (final concentration: 0.4 to 1 nmol/L) at room temperature for 60 minutes. After the incubation, the mixture was suction filtered through a GF/C filter pretreated with 0.3% polyethyleneimine. The GF/C filter was dried, and a scintillator was added thereto. The radioactivity remaining on the filter was measured using TopCount (PerkinElmer Inc.). The radioactivity in the presence of 10 μmol/L of unlabeled AVP was defined as 0%, and the radioactivity in the absence of unlabeled AVP was defined as 100%. A dose-response curve was plotted from radioactivities in the presence of a test compound at various concentrations, and the 50% inhibitory concentration (IC50 value) of the compound was calculated.

SMILES | IC50 [nM]
CC(C)NC(=O)Cn1c(-c2ccc(F)c(Cl)c2)nn(-c2ccc(CCN3C4CCC3COC4)cn2)c1=O [Db-4, 2-[3-(3-Chloro-4-fluorophenyl)-1-{5-[2-(3-oxa-8-azabicyclo[3.2.1]oct-8-yl)ethyl]pyridin-2-yl}-5-oxo-1,5-dihydro-4H-1,2,4-triazol-4-yl]-N-(propan-2-yl)acetamide] | 2.9
COc1cccc(-c2nn(-c3ccc(CCN4C5CCC4COC5)cc3)c(=O)n2CC(=O)NC(C)C)c1 [Ba-3, 2-[3-(3-Methoxyphenyl)-1-{4-[2-(3-oxa-8-azabicyclo[3.2.1]oct-8-yl)ethyl]phenyl}-5-oxo-1,5-dihydro-4H-1,2,4-triazol-4-yl]-N-(propan-2-yl)acetamide] | 9.4
CC(C)NC(=O)Cn1c(-c2cccc(Cl)c2)nn(-c2ccc(CCN3CCOCC3)nc2)c1=O [Ac-2, 2-[3-(3-Chlorophenyl)-1-{6-[2-(morpholin-4-yl)ethyl]pyridin-3-yl}-5-oxo-1,5-dihydro-4H-1,2,4-triazol-4-yl]-N-(propan-2-yl)acetamide] | 79
CC(C)NC(=O)Cn1c(-c2cccc(Cl)c2)nn(-c2ccc(CCN3CC4CCC(C3)O4)cc2)c1=O [Aa-9, 2-[3-(3-Chlorophenyl)-1-{4-[2-(8-oxa-3-azabicyclo[3.2.1]oct-3-yl)ethyl]phenyl}-5-oxo-1,5-dihydro-4H-1,2,4-triazol-4-yl]-N-(propan-2-yl)acetamide] | 18
COc1cc(-c2nn(-c3ccc(CCN4CC5(CCOCC5)C4)cc3)c(=O)n2CC(=O)NC(C)C)ccc1F [Ca-6, 2-[3-(4-Fluoro-3-methoxyphenyl)-1-{4-[2-(7-oxa-2-azaspiro[3.5]non-2-yl)ethyl]phenyl}-5-oxo-1,5-dihydro-4H-1,2,4-triazol-4-yl]-N-(propan-2-yl)acetamide] | 10 to 100
COc1cc(-n2nc(-c3cccc(Cl)c3)n(CC(=O)NC(C)C)c2=O)ccc1CCN1CCOCC1 [Ad-9, 2-[3-(3-Chlorophenyl)-1-{3-methoxy-4-[2-(morpholin-4-yl)ethyl]phenyl}-5-oxo-1,5-dihydro-4H-1,2,4-triazol-4-yl]-N-(propan-2-yl)acetamide] | 2.3
COc1cc(-n2nc(-c3cccc(Cl)c3)n(CC(=O)NC(C)C)c2=O)ccc1CCN1C2CCC1COC2 [Ad-10, 2-[3-(3-Chlorophenyl)-1-{3-methoxy-4-[2-(3-oxa-8-azabicyclo[3.2.1]oct-8-yl)ethyl]phenyl}-5-oxo-1,5-dihydro-4H-1,2,4-triazol-4-yl]-N-(propan-2-yl)acetamide] | 1.3
COc1cc(-c2nn(-c3ccc(CCN4C5CCC4COC5)cc3)c(=O)n2CC(=O)NC(C)C)ccc1F [Ca-5, 2-[3-(4-Fluoro-3-methoxyphenyl)-1-{4-[2-(3-oxa-8-azabicyclo[3.2.1]oct-8-yl)ethyl]phenyl}-5-oxo-1,5-dihydro-4H-1,2,4-triazol-4-yl]-N-(propan-2-yl)acetamide] | 4.4
COc1cccc(-c2nn(-c3ccc(CCN4CCOCC4)cn3)c(=O)n2CC(=O)NC(C)(C)C)c1 [Bd-1, N-Tert-Butyl-2-[3-(3-methoxyphenyl)-1-{5-[2-(morpholin-4-yl)ethyl]pyridin-2-yl}-5-oxo-1,5-dihydro-4H-1,2,4-triazol-4-yl]acetamide] | 4.1
CC(C)NC(=O)Cn1c(-c2cccc(Cl)c2)nn(-c2ccc(CC(C)N3CCOCC3)cc2)c1=O (centres unmarked) [Ad-13, 2-[3-(3-Chlorophenyl)-1-{4-[2-(morpholin-4-yl)propyl]phenyl}-5-oxo-1,5-dihydro-4H-1,2,4-triazol-4-yl]-N-(propan-2-yl)acetamide] | 2.9
CC(C)NC(=O)Cn1c(-c2cccc(Cl)c2)nn(-c2ccc(CCN3C4CCC3CC(O)C4)cn2)c1=O (centres unmarked) [Ab-4, 2-[3-(3-Chlorophenyl)-1-{5-[2-(3-hydroxy-8-azabicyclo[3.2.1]oct-8-yl)ethyl]pyridin-2-yl}-5-oxo-1,5-dihydro-4H-1,2,4-triazol-4-yl]-N-(propan-2-yl)acetamide] | 20
CC(C)NC(=O)Cn1c(-c2cccc(Cl)c2)nn(-c2ccc(CCN)cc2)c1=O [Ad-21, 2-[3-(3-Chlorophenyl)-1-[4-(2-aminoethyl)phenyl]-5-oxo-1,5-dihydro-4H-1,2,4-triazol-4-yl]-N-(propan-2-yl)acetamide] | 365
COc1cc(-c2nn(-c3ccc(CCN4CC=CCC4)cc3)c(=O)n2CC(=O)NC(C)C)ccc1F [Ca-7, 2-[1-{4-[2-(3,6-Dihydropyridin-1(2H)-yl)ethyl]phenyl}-3-(4-fluoro-3-methoxyphenyl)-5-oxo-1,5-dihydro-4H-1,2,4-triazol-4-yl]-N-(propan-2-yl)acetamide] | 10 to 100
COc1cc(-c2nn(-c3ccc(CCN4CCC(C)CC4)cc3)c(=O)n2CC(=O)NC(C)C)ccc1F [Ca-9, 2-[3-(4-Fluoro-3-methoxyphenyl)-1-{4-[2-(4-methylpiperidin-1-yl)ethyl]phenyl}-5-oxo-1,5-dihydro-4H-1,2,4-triazol-4-yl]-N-(propan-2-yl)acetamide] | 10 to 100

The remaining lines, values ahead:

IC50 [nM] | SMILES
863 | COc1cc(-c2nn(-c3ccc(CN4CCN(C)CC4)cc3)c(=O)n2CC(=O)NC(C)C)ccc1F [Cd-4, 2-[3-(4-Fluoro-3-methoxyphenyl)-1-{4-[(4-methylpiperazin-1-yl)methyl]phenyl}-5-oxo-1,5-dihydro-4H-1,2,4-triazol-4-yl]-N-(propan-2-yl)acetamide]
46 | CC(C)NC(=O)Cn1c(-c2cccc(S(C)(=O)=O)c2)nn(-c2ccc(CCN3CCOCC3)cc2)c1=O [Ia-1, 2-(3-[3-(Methylsulfonyl)phenyl]-1-{4-[2-(morpholin-4-yl)ethyl]phenyl}-5-oxo-1,5-dihydro-4H-1,2,4-triazol-4-yl)-N-(propan-2-yl)acetamide]
7.1 | CC(C)NC(=O)Cn1c(-c2ccc(F)c(Cl)c2)nn(-c2ccc(CCN3CCOCC3)cn2)c1=O [Db-2, 2-[3-(3-Chloro-4-fluorophenyl)-1-{5-[2-(morpholin-4-yl)ethyl]pyridin-2-yl}-5-oxo-1,5-dihydro-4H-1,2,4-triazol-4-yl]-N-(propan-2-yl)acetamide]
10 to 100 | COc1cc(-c2nn(-c3ccc(CCN4CCCC4)cc3)c(=O)n2CC(=O)NC(C)C)ccc1F [Ca-24, 2-[3-(4-Fluoro-3-methoxyphenyl)-5-oxo-1-{4-[2-(pyrrolidin-1-yl)ethyl]phenyl}-1,5-dihydro-4H-1,2,4-triazol-4-yl]-N-(propan-2-yl)acetamide formate]
100 to 1000 | COc1cc(-c2nn(-c3ccc(CCN4CCC(C)(O)CC4)cc3)c(=O)n2CC(=O)NC(C)C)ccc1F [Ca-27, 2-[3-(4-Fluoro-3-methoxyphenyl)-1-{4-[2-(4-hydroxy4-methylpiperidin-1-yl)ethyl]phenyl}-5-oxo-1,5-dihydro-4H-1,2,4-triazol-4-yl]-N-(propan-2-yl)acetamide trifluoroacetate]
166 | COc1cc(-c2nn(-c3ncc(CCN4CCOCC4)cn3)c(=O)n2CC(=O)NC(C)C)ccc1F [Cd-1, 2-[3-(4-Fluoro-3-methoxyphenyl)-1-{5-[2-(morpholin-4-yl)ethyl]pyrimidin-2-yl}-5-oxo-1,5-dihydro-4H-1,2,4-triazol-4-yl]-N-(propan-2-yl)acetamide]
100 to 1000 | CCCC1CCN(CCc2ccc(-n3nc(-c4ccc(F)c(OC)c4)n(CC(=O)NC(C)C)c3=O)cc2)CC1 [Ca-12, 2-[3-(4-Fluoro-3-methoxyphenyl)-5-oxo-1-{4-[2-(4-propylpiperidin-1-yl)ethyl]phenyl}-1,5-dihydro-4H-1,2,4-triazol-4-yl]-N-(propan-2-1)acetamide]
10 to 100 | COc1cc(-c2nn(-c3ccc(CCN4CCC5CCCCC5C4)cc3)c(=O)n2CC(=O)NC(C)C)ccc1F (centres unmarked) [Ca-15, 2-[3-(4-Fluoro-3-methoxyphenyl)-1-{4-[2-(octahydroisoquinolin-2(1H)-yl)ethyl]phenyl}-5-oxo-1,5-dihydro-4H-1,2,4-triazol-4-yl]-N-(propan-2-yl)acetamide]
100 to 1000 | COc1cc(-c2nn(-c3ccc(CCN4CCC(N(C)C)CC4)cc3)c(=O)n2CC(=O)NC(C)C)ccc1F [Ca-14, 2-[1-(4-{2-[4-(Dimethylamino)piperidin-1-yl]ethyl}phenyl)-3-(4-fluoro-3-methoxyphenyl)-5-oxo-1,5-dihydro-4H-1,2,4-triazol-4-yl]-N-(propan-2-yl)acetamide]
